Measured values reported in PMC10539800, “Small-molecule inhibitors of the PDZ domain of Dishevelled proteins interrupt Wnt signalling” (Magnetic resonance, 2021).

Legend:
Dvl-3 PDZ [1] = test: Binding constant by NMR titration; parameters: species or system human; conditions: from NMR K D values
Description: (§1) K D is the equilibrium dissociation constant.

Dvl-3 PDZ [2] = biological target: T1, Dvl-3 PDZ (Homo sapiens, UniProt Q92997); test: Binding constant by NMR titration; conditions: by NMR; mean ± SD of at least six residues; read-out: K D Dvl-3 PDZ
T1 construct: spectra of Dvl-3 PDZ in the absence and presence of the compound; His-tag (cleaved yes); made in house
T1 sequence (Q92997 243-336): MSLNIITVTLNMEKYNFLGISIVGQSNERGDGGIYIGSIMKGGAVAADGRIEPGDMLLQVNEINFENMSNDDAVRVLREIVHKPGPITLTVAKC
Description: as §1

Dvl-1 PDZ [3] = biological target: T2, Dvl-1 PDZ (Homo sapiens, UniProt O14640, C338S/V250I); test: Binding constant by NMR titration; parameters: made in house; host or cells: E. coli BL21 (DE3); conditions: mean ± SD of at least six residues, read-out: K D Dvl-1 PDZ
T2 sequence (O14640 245-338 V250I/C338S): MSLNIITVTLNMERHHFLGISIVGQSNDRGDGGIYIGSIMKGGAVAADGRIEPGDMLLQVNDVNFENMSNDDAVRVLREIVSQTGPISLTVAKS
Protocol: Chemical shift perturbations were obtained by comparing the ^1H-^15N backbone resonances of protein alone to those of protein–ligand complex. […] 1 Δδ=[ΔδH]^2+[ΔδN5]^2/2 Here ΔδN and ΔδH are the amide nitrogen and amide proton chemical shift differences between the free and the bound states of the protein. In order to estimate binding constants, titration experiments monitored by NMR were done. A series of ^1H-^15N HSQC were recorded as a function of ligand concentration. Residues showing a continuous chemical shift change and for which the intensity remained strong were classified as being in fast exchange. […] [LT] is the total concentration of the compound, and [PT] is the total concentration of the protein. K D is the equilibrium dissociation constant. The K D values are reported as means ± standard deviations of at least six residues influenced upon binding of the ligand.

Dvl-3 PDZ [4] = biological target: T1, Dvl-3 PDZ; test: NMR 1H-15N HSQC chemical shift perturbation; type: binding; conditions: Dvl-3 PDZ; average of the three strongest shifting cross peaks
Protocol: The results of virtual screening were checked experimentally by comparing 2D ^1H-^15N HSQC (heteronuclear single quantum correlation) spectra of Dvl-3 PDZ in the absence and presence of the compound to elucidate ligand-induced changes of chemical shifts. Chemical shift perturbation differences ( Δ CSP, representing the average of the three strongest shifting cross peaks according to Eq. 1) were evaluated in cases where the residues responding strongest are inside the area defined by Fig. 1a. […] In most cases, the signals of residues S263, V287, and R320 (Fig. 1a) within the conserved binding site were most strongly perturbed (Fig. S2). With the Δ CSP of 0.12 ppm, the isoleucine-derived compound 1 ((2,3-dihydrobenzo[b][1,4]dioxin-6-yl)sulfonyl)-L-isoleucine containing a sulfonamide moiety was detected initially as one of the best “hits” according to chemical shift changes. The sulfonamide is a well-known moiety in drug discovery (Mathvink et al., 1999; Wu et al., 1999; Sleight et al., 1998; O'Brien et al., 2000; Tellew et al., 2003).
Two-dimensional ^1H-^15N HSQC spectra were used to screen a library of 212 compounds designed by the company Enamine for PDZ domains. 50 µM of ^15N -labelled protein samples was prepared in a 20 mM sodium phosphate buffer, containing 50 mM sodium chloride, 0.02 % ( w/v ) NaN3 , at pH 7.4. Stock solutions of small molecules were prepared in DMSO-d6 at a concentration of 160 mM. A ^1H-^15N HSQC spectrum of Dvl PDZ was acquired at 300 K with 5 % DMSO-d6 in the absence of ligand as reference spectrum. Mixtures of 16 compounds were added to ^15N -labelled Dvl PDZ at eightfold molar excess each. The final concentration of DMSO-d6 in the protein–ligand solutions was 5 %. Spectra were acquired with eight scans and 256 points in the indirect dimension. […] The active compound was obtained through successive deconvolution. Experiments were recorded on a Bruker DRX600 spectrometer equipped with a triple-resonance cryoprobe. The preparation of samples was done automatically by a Tecan Genesis RSP 150 pipetting robot. Spectra were analysed using the programs TOPSPIN and SPARKY (Goddard and Kneller, 2003).
50 µM of ^15N -labelled protein samples was prepared in a 20 mM sodium phosphate buffer containing 50 mM sodium chloride, 0.02 % ( w/v ) NaN3 , at pH 7.4. Stock solutions of small molecules were prepared in DMSO-d6 at a concentration of 160 mM. A ^1H-^15N HSQC spectrum of Dvl PDZ was acquired at 300 K with 5 % DMSO-d6 in the absence of ligand as reference spectrum. Mixtures of 16 compounds were added to ^15N -labelled Dvl PDZ at eightfold molar excess each. The final concentration of DMSO-d6 in the protein–ligand solutions was 5 %. Spectra were acquired with eight scans and 256 points in the indirect dimension.
The active compound was obtained through successive deconvolution. Experiments were recorded on a Bruker DRX600 spectrometer equipped with a triple-resonance cryoprobe. The preparation of samples was done automatically by a Tecan Genesis RSP 150 pipetting robot. Spectra were analysed using the programs TOPSPIN and SPARKY.

Dvl-1 PDZ [5] = biological target: Dvl-1 PDZ; parameters: method as in Kim et al., 2016; conditions: value from literature; ref Kim et al., 2016; read-out: K D Dvl-1 PDZ; cited from earlier work

Row | Compound | discrimination between Dvl-3 PDZ and Dvl-1 PDZ (in words) (Dvl-3 PDZ [1]) | Kd (Dvl-3 PDZ [2]) [µM] | Kd (Dvl-1 PDZ [3]) [µM] | Chemical shift perturbation ΔCSP (Dvl-3 PDZ [4]) [ppm] | Kd (Dvl-1 PDZ [5]) [µM]
1 | O=C(O)c1cc(F)ccc1NS(=O)(=O)c1ccc2c(c1)CCCC2 [Compound 5] | did not distinguish | 141 ± 14.1 | 160 ± 14.6 | > 0.2 | 
2 | CCOC(=O)c1cc2cc(O)ccc2n1CC(=O)NCCN1CCCCC1 [Ky-02327, ethyl 5-hydroxy-1-(2-oxo-2-((2-(piperidin-1-yl)ethyl)amino)ethyl)-1H-indole-2-carboxylate] |  |  |  |  | 8.3 ± 0.8
